Reference: patent publication US11046649B2, “Compounds useful as inhibitors of indoleamine 2,3-dioxygenase and/or tryptophan dioxygenase” (Board of Regents, The University of Texas System, priority 2018, dated 2021)

Biological target: T1, IDO1 (Homo sapiens, UniProt P14902)
T1 construct: endogenous in cells; host or cells: HeLa cells (ATCC), IDO1 induced with 10 ng/mL IFNgamma
Test: IDO1 cell-based assay
Settings: HeLa cells, 10 ng/mL IFNgamma, 24 hours with test compound; N-Formyl Kynurenine and L-tryptophan quantified by RFMS

T1 sequence (P14902 whole entry): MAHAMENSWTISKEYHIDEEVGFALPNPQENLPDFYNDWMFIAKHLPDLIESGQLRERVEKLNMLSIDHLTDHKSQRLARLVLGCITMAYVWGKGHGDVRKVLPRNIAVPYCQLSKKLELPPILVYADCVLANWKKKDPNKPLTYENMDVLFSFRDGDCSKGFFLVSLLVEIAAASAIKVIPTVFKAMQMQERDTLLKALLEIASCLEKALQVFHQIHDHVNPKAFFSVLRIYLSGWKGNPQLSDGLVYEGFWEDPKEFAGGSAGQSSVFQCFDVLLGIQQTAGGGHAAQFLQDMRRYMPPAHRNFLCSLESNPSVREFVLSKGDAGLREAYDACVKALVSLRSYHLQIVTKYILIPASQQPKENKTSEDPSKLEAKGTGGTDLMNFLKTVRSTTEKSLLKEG

Row | Compound | IC50 [nM]
1 | 2-((1R,3s,5S,6r)-3-((6- fluoroquinolin-4-yl)oxy)- bicyclo[3.1.0]hexan-6-yl)- N-(5-(4-methyl-4H-1,2,4- triazol-3-yl)pyridin-2-yl)- propanamide [Example 97] | 818
2 | CC(C(=O)NC12CC(F)(C1)C2)[C@H]1[C@@H]2C[C@@H](n3cnc4cc(F)c(F)cc43)C[C@@H]21 (stereo partly drawn) [Example 28, 2-((1R,3s,5S,6r)-3-(5,6-difluoro-1H-benzo[d]-imidazol-1-yl)bicyclo-[3.1.0]hexan-6-yl)-N-(3-fluorobicyclo[1.1.1]pentan-1-yl)propanamide] | 2520
3 | CC(C(=O)Nc1cc(C(F)(F)F)nn1C)[C@H]1[C@@H]2C[C@@H](n3cnc4cc(F)c(F)cc43)C[C@@H]21 (stereo partly drawn) [Example 55, 2-((1R,3s,5S,6r)-3-(5,6-difluoro-1H-benzo[d]-imidazol-1-yl)bicyclo-[3.1.0]hexan-6-yl)-N-(1-methyl-3-(trifluoromethyl)-1H-pyrazol-5-yl)-propanamide] | 275
4 | CCC(C(=O)Nc1ccc(-n2cncn2)cn1)[C@H]1[C@@H]2C[C@@H](Oc3ccnc4ccc(F)cc34)C[C@@H]21 (stereo partly drawn) [Example 119, N-(5-(1H-1,2,4-triazol-1-yl)pyridin-2-yl)-2-((1R,3s,5S,6r)-3-((6-fluoro-quinolin-4-yl)oxy)-bicyclo[3.1.0]hexan-6-yl)-butanamide] | 6.9
5 | Cc1ccc(NC(=O)C(C)[C@H]2[C@@H]3C[C@@H](n4cnc5cc(F)c(F)cc54)C[C@@H]32)nc1 (stereo partly drawn) [Example 29, 2-((1R,3s,5S,6r)-3-(5,6-difluoro-1H-benzo[d]-imidazol-1-yl)bicyclo-[3.1.0]hexan-6-yl)-N-(5-methylpyridin-2-yl)-propanamide] | 10.9
6 | CC(C(=O)Nc1ccc(C2CC2)nc1)[C@H]1[C@@H]2C[C@@H](n3cnc4cc(F)c(F)cc43)C[C@@H]21 (stereo partly drawn) [Example 56, N-(6-cyclopropylpyridin-3-yl)-2-((1R,3s,5S,6r)-3-(5,6-difluoro-1H-benzo[d]-imidazol-1-yl)bicyclo-[3.1.0]hexan-6-yl)-propanamide] | 5.7
7 | CC(C(=O)Nc1cc(C2CC2)nn1C)[C@H]1[C@@H]2C[C@@H](n3cnc4cc(F)c(F)cc43)C[C@@H]21 (stereo partly drawn) [Example 48, N-(3-cyclopropyl-1-methyl-1H-pyrazol-5-yl)-2-((1R,3s,5S,6r)-3-(5,6-difluoro-1H-benzo[d]-imidazol-1-yl)bicyclo-[3.1.0]hexan-6-yl)-propanamide] | 589
8 | CC(=O)NC12CC(NC(=O)C(C)[C@H]3[C@@H]4C[C@@H](Oc5ccnc6ccc(F)cc56)C[C@@H]43)(C1)C2 (stereo partly drawn) [Example 133, N-(3-acetamidobicyclo-[1.1.1]pentan-1-yl)-2-((1R,3s,5S,6r)-3-((6-fluoro-quinolin-4-yl)oxy)bicyclo-[3.1.0]hexan-6-yl)-propanamide] | 420
9 | Cc1nc(NC(=O)C(C)[C@H]2[C@@H]3C[C@@H](n4cnc5cc(F)c(F)cc54)C[C@@H]32)ccc1C#N (stereo partly drawn) [Example 46, (R)-N-(5-cyano-6-methyl-pyridin-2-yl)-2-((1R,3s,5S,6r)-3-(5,6-difluoro-1H-benzo[d]-imidazol-1-yl)bicyclo-[3.1.0]hexan-6-yl)-propanamide] | 41.3
10 | C[C@H](C(=O)Nc1ccc(-c2ccc(F)cc2)cc1)[C@H]1[C@@H]2C[C@@H](n3cnc4cc(F)c(F)cc43)C[C@@H]21 [Example 93, (S)-2-((1R,3R,5S,6r)-3-(5,6-difluoro-1H-benzo[d]-imidazol-1-yl)bicyclo-[3.1.0]hexan-6-yl)-N-(4′-fluoro-[1,1′-biphenyl]-4-yl)propanamide] | 329
11 | CC(C(=O)Nc1ccn(C)n1)[C@H]1[C@@H]2C[C@@H](n3cnc4cc(F)c(F)cc43)C[C@@H]21 (stereo partly drawn) [Example 34, 2-((1R,3s,5S,6r)-3-(5,6-difluoro-1H-benzo[d]-imidazol-1-yl)bicyclo-[3.1.0]hexan-6-yl)-N-(1-methyl-1H-pyrazol-3-yl)-propanamide] | 179
12 | CC(C(=O)Nc1ccc(C(F)(F)F)cn1)[C@H]1[C@@H]2C[C@@H](Oc3ccnc4ccc(F)cc34)C[C@@H]21 (stereo partly drawn) [Example 59, 2-((1R,3s,5S,6r)-3-((6-fluoroquinolin-4-yl)oxy)-bicyclo[3.1.0]hexan-6-yl)-N-(5-(trifluoromethyl)-pyridin-2-yl)propanamide] | 3.7
13 | CC(C(=O)Nc1ccc(Cl)cn1)[C@H]1[C@@H]2C[C@@H](n3cnc4cc(F)c(F)cc43)C[C@@H]21 (stereo partly drawn) [Example 22, N-(5-chloropyridin-2-yl)-2-((1R,3s,5S,6r)-3-(5,6-difluoro-1H-benzo[d]-imidazol-1-yl)bicyclo-[3.1.0]hexan-6-yl)-propanamide] | 2.5
14 | Cc1ccc(-c2ccc(NC(=O)[C@@H](C)[C@H]3[C@@H]4C[C@@H](n5cnc6cc(F)c(F)cc65)C[C@@H]43)cc2)cn1 [Example 67, (S)-2-((1R,3R,5S,6r)-3-(5,6-difluoro-1H-benzo[d]-imidazol-1-yl)-bicyclo[3.1.0]hexan-6-yl)-N-(4-(6-methylpyridin-3-yl)phenyl)propanamide] | 261
15 | CC(C(=O)NC1CCN(C(=O)OC(C)(C)C)CC1)[C@H]1[C@@H]2C[C@@H](Oc3ccnc4ccc(F)cc34)C[C@@H]21 (stereo partly drawn) [Example 94, tert-butyl 4-(2-((1R,3s,5S,6r)-3-((6-fluoroquinolin-4-yl)oxy)-bicyclo[3.1.0]hexan-6-yl)-propanamido)piperidine-1-carboxylate] | 1090
16 | CC(C(=O)NC12CC(N)(C1)C2)[C@H]1[C@@H]2C[C@@H](Oc3ccnc4ccc(F)cc34)C[C@@H]21 (stereo partly drawn) [Example 11, N-(3-aminobicyclo[1.1.1]pentan-1-yl)-2-((1R,3s,5S,6r)-3-((6-fluoroquinolin-4-yl)oxy)-bicyclo-[3.1.0]hexan-6-yl)propanamide] | 1600
17 | 2-((1R,3s,5S,6r)-3-((6- fluoroquinolin-4-yl)oxy)- bicyclo[3.1.0]hexan-6-yl)- N-(1-(trifluoromethyl)-1H- pyrazol-3-yl)propanamide [Example 102] | 3.7
18 | CCC(C(=O)Nc1ccc(C(N)=O)cn1)[C@H]1[C@@H]2C[C@@H](Oc3ccnc4ccc(F)cc34)C[C@@H]21 (stereo partly drawn) [Example 118, 6-(2-((1R,3s,5S,6r)-3-((6-fluoroquinolin-4-yl)oxy)-bicyclo[3.1.0]hexan-6-yl)-butanamido)nicotinamide] | 21.3
19 | CC(C(=O)NC12CC(C(F)(F)F)(C1)C2)[C@H]1[C@@H]2C[C@@H](n3cnc4cc(F)c(F)cc43)C[C@@H]21 (stereo partly drawn) [Example 24, 2-((1R,3s,5S,6r)-3-(5,6-difluoro-1H-benzo[d]-imidazol-1-yl)bicyclo-[3.1.0]hexan-6-yl)-N-(3-(trifluoromethyl)bicyclo [1.1.1]pentan-1-yl)-propanamide] | 117
20 | COCC12CC(NC(=O)C(C)[C@H]3[C@@H]4C[C@@H](Oc5ccnc6ccc(F)cc56)C[C@@H]43)(C1)C2 (stereo partly drawn) [Example 9, 2-((1R,3s,5S,6r)-3-((6-fluoroquinolin-4-yl)oxy)bicyclo[3.1.0]hexan-6-yl)-N-(3-(methoxymethyl)bicyclo[1.1.1]pentan-1-yl)propanamide] | 55
21 | C[C@H](C(=O)Nc1ccc(-c2ccc(C#N)cn2)cc1)[C@H]1[C@@H]2C[C@@H](n3cnc4cc(F)c(F)cc43)C[C@@H]21 [Example 83, (S)-N-(4-(5-cyanopyridin-2-yl)phenyl)-2-((1R,3R,5S,6r)-3-(5,6-difluoro-1H-benzo[d]-imidazol-1-yl)bicyclo-[3.1.0]hexan-6-yl)-propanamide] | 845
22 | CC(C(=O)NCCC(F)(F)F)[C@H]1[C@@H]2C[C@@H](n3cnc4cc(F)c(F)cc43)C[C@@H]21 (stereo partly drawn) [Example 45, 2-((1R,3s,5S,6r)-3-(5,6-difluoro-1H-benzo[d]-imidazol-1-yl)bicyclo-[3.1.0]hexan-6-yl)-N-(3,3,3-bifluoropropyl)-propanamide] | 663
23 | COCC(=O)NC12CC(NC(=O)C(C)[C@H]3[C@@H]4C[C@@H](Oc5ccnc6ccc(F)cc56)C[C@@H]43)(C1)C2 (stereo partly drawn) [Example 132, 2-((1R,3s,5S,6r)-3-((6-fluoroquinolin-4-yl)oxy)-bicyclo[3.1.0]hexan-6-yl)-N-(3-(2-methoxyacetamido)-bicyclo[1.1.1]pentan-1-yl)-propanamide] | 511
24 | COc1ccc(-c2ccc(NC(=O)[C@@H](C)[C@H]3[C@@H]4C[C@@H](n5cnc6cc(F)c(F)cc65)C[C@@H]43)cc2)cn1 [Example 6, (S)-2-((1R,3R,5S,6r)-3-(5,6-difluoro-1H-benzo[d]imidazol-1-yl)bicyclo[3.1.0]hexan-6-yl)-N-(4-(6-methoxypyridin-3-yl)phenyl)propanamide] | 329
25 | CC(C(=O)Nc1nc2c(Br)cc(Cl)cc2s1)[C@H]1[C@@H]2C[C@@H](Oc3ccnc4ccc(F)cc34)C[C@@H]21 (stereo partly drawn) [Example 95, N-(4-bromo-6-chloro-benzo[d]thiazol-2-yl)-2-((1R,3s,5S,6r)-3-((6-fluoroquinolin-4-yl)-oxy)bicyclo[3.1.0]hexan-6-yl)propanamide] | 231
26 | CC(C(=O)NC1CC(F)(F)C1)[C@H]1[C@@H]2C[C@@H](n3cnc4cc(F)c(F)cc43)C[C@@H]21 (stereo partly drawn) [Example 30, 2-((1R,3s,5S,6r)-3-(5,6-difluoro-1H-benzo[d]-imidazol-1-yl)bicyclo-[3.1.0]hexan-6-yl)-N-(3,3-difluorocyclobutyl)-propanamide] | 1640
27 | CC(C(=O)NC1CCC(F)(F)C1)[C@H]1[C@@H]2C[C@@H](n3cnc4cc(F)c(F)cc43)C[C@@H]21 (stereo partly drawn) [Example 32, 2-((1R,3s,5S,6r)-3-(5,6-difluoro-1H-benzo[d]-imidazol-1-yl)bicyclo-[3.1.0]hexan-6-yl)-N-(3,3-difluorocyclopentyl)-propanamide] | 289
28 | CC(C(=O)NC12CC(NC(=O)CC#N)(C1)C2)[C@H]1[C@@H]2C[C@@H](Oc3ccnc4ccc(F)cc34)C[C@@H]21 (stereo partly shown) [Example 130] | 636
